Data from patent US20070037790A1, “Bicyclo-pyrazole derivatives active as kinase inhibitors, process for their preparation and pharmaceutical compositions comprising them” (priority 2003, published 2007).

molecular target: Cdk2/Cyclin A (Homo sapiens, UniProt P24941); test: Inhibition assay of Cdk2/Cyclin A activity (SPA); type: biochemical; settings: 10 μM ATP, biotinylated histone H1 substrate, read-out: IC50 against Cdk2/Cyclin A
Method: The inhibiting activity of putative Cdk/Cyclin inhibitors and the potency of selected compounds is determined through a method of assay based on the use of the SPA technology (Amersham Pharmacia Biotech).
The assay consists of the transfer of radioactivity labelled phosphate moiety by the kinase to a biotinylated substrate. The resulting 33P-labelled biotinylated product is allowed to bind to streptavidin-coated SPA beads (biotin capacity 130 pmol/mg), and light emitted is measured in a scintillation counter.
Inhibition Assay of Cdk2/Cyclin A Activity
Kinase reaction: 4 μM in house biotinylated histone H1 (Sigma # H-5505) substrate, 10 μM ATP (0.1 microCi P^33γ-ATP), 4.2 ng Cdk2/Cyclin A complex, inhibitor in a final volume of 30 μl buffer (TRIS HCl 10 mM pH 7.5, MgCl2 10 mM, DTT 7.5 mM+0.2 mg/ml BSA) were added to each well of a 96 U bottom. After 30 min at r.t. incubation, reaction was stopped by 100 μl PBS+32 mM EDTA+0.1% Triton X-100+500 μM ATP, containing 1 mg SPA beads. Then a volume of 110 μl is transferred to Optiplate. After 20 min. incubation for substrate capture, 100 μl 5M CsCl were added to allow statification of beads to the top of the plate and let stand 4 hours before radioactivity counting in the Top-Count instrument
IC50 determination: inhibitors were tested at different concentrations ranging from 0.0015 to 10 μM. Experimental data were analyzed by the computer program GraphPad Prizm using the four parameter logistic equation: y=bottom+(top−bottom)/(1+10ˆ((log IC50−x)*slope)) where x is the logarithm of the inhibitor concentration, y is the response; y starts at bottom and goes to top with a sigmoid shape. Ki Calculation: Experimental method: Reaction was carried out in buffer (10 mM Tris, pH 7.5, 10 mM MgCl2, 0.2 mg/ml BSA, 7.5 mM DTI) containing 3.7 nM enzyme, histone and ATP (constant ratio of cold/labeled ATP 1/3000). Reaction was stopped with EDTA and the substrate captured on phosphomembrane (Multiscreen 96 well plates from Millipore). After extensive washing, the multiscreen plates are read on a top counter. Control (time zero) for each ATP and histone concentrations was measured. Experimental design: Reaction velocities are measured at different four ATP, substrate (histone) and inhibitor concentrations. An […] concentration matrix was designed around the respective ATP and substrate Km values, and the inhibitor IC50 values (0.3, 1, 3, 9 fold the Km or IC50 values). A preliminary time course experiment in the absence of inhibitor and at the different ATP and substrate concentrations allow the selection of a single endpoint time (10 min) in the linear range of the reaction for the Ki determination experiment. Kinetic parameter estimates: Kinetic parameters were estimated by simultaneous nonlinear least-square regression using [Eq.1] […]

IC50 [nM]	Molecule
220	3-(4-tert-butyl-benzamido)-5-[(2-propylamino)pyrimidin-4-yl]-4,6-dihydropyrrolo[3,4-c]pyrazole
340	CC(C)(C)c1ccc(C(=O)Nc2n[nH]c3c2CN(c2ccnc(N4CCOCC4)n2)C3)cc1 [3-(4-tert-butyl-benzamido)-5-[2-(N-morpholino)pyrimidin-4-yl]-4,6-dihydropyrrolo[3,4-c]pyrazole]
2500	CC(C)(C)c1ccc(C(=O)Nc2[nH]nc3c2CN(C(=O)c2cnccn2)C3)cc1 [N-{5-(pyrazine-2-carbonyl)-4,6-dihydropyrrolo[3,4-c]pyrazol-3-yl}-4-tertbutylbenzamide]
> 10000	CC(C)(C)c1ccc(C(=O)Nc2[nH]nc3c2CN(C(=O)c2ccncc2)C3)cc1 [N-{5-(pyridine-4-carbonyl)-4,6-dihydropyrrolo[3,4-c]pyrazol-3-yl}-4-tertbutylbenzamide]
